Experiment [1] concerns HaCaT cells. In words: HaCaT turnover rate determination (BrdU assay). The experiment is classed as cell-based. Particulars: BrdU incorporation, non-toxic concentrations. As for the experimental part:
(§1) Dose response and time course analyses was performed initially in order to evaluate the impact of bucillamine on HaCaT cell viability. Then, selected non-toxic concentrations were further evaluated by BrdU incorporation to determine the ability of the test item to reduce the keratinocyte proliferation rate. In addition, the ability of the test items to reduce thiol moieties, and therefore loosen the blockage of the meibomian gland, was tested on stratum corneum obtained from human skin.
(§2) The cells were incubated without or with six concentrations of the test item, for 24, 48 and 72 hr at 37° C. with 5% CO2 under humidified conditions. At the end of each incubation period, cell viability was measured by MTT assay. A blank control was subtracted from all the measurements. HaCaT Turnover Rate Determination The proliferation rate of HaCaT cells upon treatments with the test item was examined by using the BrdU assay. Colorimetric evaluation of the turnover rate was recorded by ELISA reader. Ex Vivo Assessment in the Human Skin Model System The human skin organ culture was obtained from healthy patient undergoing plastic surgery. The study was initiated the day of surgery.

Experiment [2] can be described thus: Ex vivo free thiol determination in the human skin model system. To be noted: non-toxic concentrations. As for the experimental part: as §1, §2
To isolate the free thiol from the mixture of the samples, samples were incubated with equal volume of TCA (trichloroacetic acid) for 5 min. […] The pellets were evaluated.

Experiment [3] relates to 3D Sebocytes culture (human cell line SEBO662). In words: Lipid accumulation (Oil-red-O staining) in 3D model culture of Sebocytes. The experiment is classed as cell-based. To be noted: 14 days incubation, lipid droplet surface area. The source says:
Since secretory cells (meibocytes) of meibomian glands, share similarities with that of the secretory cells (sebocytes) of sebaceous glands, as can be validated from their similar structure, similar function and their joint embryologic development (Knop 2011_IOVS) the effect of Thiol containing Lipids on lipid production can be evaluated in a 3D model culture of Sebocytes. See also: Barrault 2012, Immortalized sebocytes can spontaneously differentiate into a sebaceous-like phenotype when cultured as a 3D epithelium, Exp. Derm, 21:299-319
The effect of different compounds on lipid synthesis was evaluated, in a 3D model culture of Sebocytes. Drug candidates were compounds comprising a thiol group. Selenium disulfide (SeS2 dispersed in CarboxymethylCellulose—CMC) as a positive control. Since Sebocytes differentiation is associated with increased lipid synthesis and accumulation, evaluation of proliferation and differentiation was done by quantifying lipid accumulation in the 3D Sebocytes culture (human cell line—SEBO662). Lipid accumulation was evaluated by lipid staining with Oil red staining.
Sebocytes SEBO662 were cultured into a three dimension (3D) epithelium and differentiated to a sebaceous-like phenotype. The Sebocytes were treated or not (control) with the test compounds and incubated for 14 days. All experiments were performed 3 times. After incubation, tissues were snap-frozen. Formaldehyde-fixed cryo sections were stained using an Oil-red-O solution and counterstained using haematoxylin. For each test condition, the sections were observed using a light microscope equipped with a camera. Five pictures were taken per replicate, making 15 values per treatment condition. The lipid content in each sample was quantified by calculation of the lipid droplet surface area. Quantitative comparison of all data points between lipid's droplet surface area of tested compounds versus control was performed

Regarding `CC(C)(S)C(=O)N[C@@H](CS)C(=O)O` [Bucillamine, bucillamine], in experiment [1], the “keratostatic efficacy: turnover rate of the keratinocytes cells” value is reported as “reducing the turnover rate”. Besides, in experiment [2], the “increase of free thiol moieties (keratolytic efficacy)” value was “approx. 6 fold”. The “lipid accumulation in the upper region of the 3D Sebocytes (% of the control)” value in experiment [3] (0.01 μM) is recorded as 115 % of the control; in experiment [3] (0.1 μM), 172 % of the control; in experiment [3] (1 μM), 214 % of the control.

As to `S=[Se]=S` [Selenium disulfide], the “lipid accumulation in the upper region of the 3D Sebocytes (% of the control)” value in experiment [3] (0.01 μM) was 282 % of the control; in experiment [3] (0.1 μM) it was 348 % of the control.

Values taken from US11484516B2, “Agents for increasing meibomian gland lipid secretion” (Azura Ophthalmics Ltd., priority 2017, dated 2022).
